23 compounds from PubChem BioAssay (NCI) can be followed below.

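Dose response: 5 concentrations. Exposure: 48 h. Format: 96-well plates. Endpoint: linear interpolation; highest concentration if not reached. At the TGI there is no net growth.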

Some test systems named below: KM20L2 colon; RXF-631 renal; DMS 273 small cell lung.
Holding throughout (assay): NCI-60 cell line screen, 48 h

In the case of `O=c1c2cc(Br)ccc2n(C2OC(CO)C(O)C(O)C2O)c(=S)n1-c1ccccc1` (stereo not given), the TGI in the experiment with KM20L2 colon is > 100 µM.
As to `CC1=C(c2ccccc2)CON(c2ccccc2)C1`, the results for the TGI with KM20L2 colon and with RXF-631 renal were > 100 µM and 77.4 µM, respectively.
Turning to `O[C@]12c3ccccc3C1CCCC2N1CCOCC1` (stereo not given in full), the TGI in the experiment on DMS 273 small cell lung and with KM20L2 colon was > 100 µM in each case.
On to `COc1ccc(/C=N/NC(=O)CSc2nc(-c3ccccc3)c(-c3ccccc3)[nH]2)cc1OC`, for which the TGI is 40.7 µM in the experiment with DMS 273 small cell lung and 41.6 µM in the experiment on KM20L2 colon.
Regarding `COc1cc2c(cc1OC)C(Cc1cc(Br)c(OC)c(OC)c1)=[N+](C)CC2`, the TGI in the experiment with KM20L2 colon is > 100 µM.
For the compound `N#CC(C#N)=C(N)/C(C#N)=C/c1ccc(O)c(O)c1`, the TGI in the experiment with DMS 273 small cell lung and in the experiment on KM20L2 colon was > 100 µM in each case.
For `FC(F)(F)c1nc2c(ccc3[nH]c4c(-c5ccccc5)nccc4c32)[nH]1`, the TGI with KM20L2 colon and in the experiment on RXF-631 renal was > 100 µM in each case.
Consider `CC(C(=O)c1ccc(O)cc1)C1(O)C(=O)Nc2c(Cl)cc(Cl)cc21` (stereo not given), for which the TGI with DMS 273 small cell lung, in the experiment with KM20L2 colon and in the experiment on RXF-631 renal was > 100 µM throughout.
With `COc1ccc(C2S/C(=C\c3ccc([N+](=O)[O-])cc3)C(=O)N2NC(=O)Cc2ccccc2)cc1` (stereo not given), in the experiment on DMS 273 small cell lung, the TGI was > 100 µM.
`C[C@@H]1C[C@@H]2C(=O)N(c3ccccc3)C(=O)[C@@H]2c2[nH]c3ccc(Br)cc3c21`: the TGI with DMS 273 small cell lung, in the experiment with KM20L2 colon and with RXF-631 renal was > 100 µM in each case.
On to `O=C(c1nc2ccc(Cl)cc2[nH]c1=O)C(O)c1ccco1` (stereo not given), for which the TGI is > 100 µM in the experiment with DMS 273 small cell lung, 85.1 µM with KM20L2 colon and > 100 µM with RXF-631 renal.
Take `CN(C)CCSC(=Nc1ccccc1)n1cccc1`: the TGI in the experiment with DMS 273 small cell lung and with KM20L2 colon was > 100 µM in each case.
In the case of `NC(=S)N/N=C(/CCN1CCCC1)CC(C1=C(O)C2=CCCCC2OC1=O)c1ccccc1` (stereo not given), the TGI in the experiment on KM20L2 colon was > 100 µM.
`CCOC(=O)/C(=C/c1ccccc1)N(CC)CC`: the TGI in the experiment with DMS 273 small cell lung and in the experiment on KM20L2 colon was > 100 µM in each case.
Turning to `[N-]=[N+]=Nc1nnc(CCCCc2nnc(N=[N+]=[N-])o2)o1`, the values for the TGI in the experiment with KM20L2 colon and in the experiment with RXF-631 renal were > 100 µM and 58.1 µM, respectively.
For the compound `CC(=O)NC(CCCCN(Cc1ccccc1)C(=O)N(C)N=O)C(=O)NCc1ccccc1` (stereo not given), the TGI with DMS 273 small cell lung, in the experiment with KM20L2 colon and in the experiment on RXF-631 renal was > 100 µM in each case.
`N#CC(C(=S)Nc1ccccc1)=C1Nc2ccccc2N1`: the TGI in the experiment with DMS 273 small cell lung and with KM20L2 colon was > 10 µM throughout.
As to `COc1ccc([C@H]2[C@@H]3CCc4ccccc4C3=NN2C(N)=S)cc1OC`, in the experiment with KM20L2 colon, the TGI was > 100 µM.
Consider `COc1cc(CO)cc2c1[nH]c1ccccc12`, for which the TGI in the experiment with DMS 273 small cell lung and in the experiment with KM20L2 colon was > 25 µM in each case.
For the compound `CC(=O)OCc1ncccc1C(OC(C)=O)OC(C)=O`, the TGI in the experiment with DMS 273 small cell lung and in the experiment with KM20L2 colon was > 100 µM throughout.
For the compound `CCOc1cc2cnc3c4cc(OC)c(OC)cc4ccc3c2cc1OC`, the TGI in the experiment on KM20L2 colon is > 100 µM.
`NC(CCSCCF)C(=O)O` (stereo not given): the TGI in the experiment on DMS 273 small cell lung and with KM20L2 colon was > 100 µM in each case.
Turning to `CC(C)C1COC(C(C)(C)C2=N[C@@H](C(C)C)CO2)=N1` (stereo not given in full), the TGI in the experiment with DMS 273 small cell lung, in the experiment on KM20L2 colon and in the experiment on RXF-631 renal was > 100 µM throughout.
